The results in this text go back to patent US9682977B2, “Bicyclic heteroaryl indole analogues useful as ROR gamma modulators” (Glenmark Pharmaceuticals S.A., priority 2013, dated 2017).

Each structure is given as a SMILES string. Like-named read-outs stand apart in the source and are kept apart here.

For the test, the target named is T1, GST-tagged ROR gamma ligand binding domain (LBD) (Homo sapiens, UniProt P51449).
T1 construct: purchased Invitrogen
T1 sequence (P51449 269-508 limits assumed): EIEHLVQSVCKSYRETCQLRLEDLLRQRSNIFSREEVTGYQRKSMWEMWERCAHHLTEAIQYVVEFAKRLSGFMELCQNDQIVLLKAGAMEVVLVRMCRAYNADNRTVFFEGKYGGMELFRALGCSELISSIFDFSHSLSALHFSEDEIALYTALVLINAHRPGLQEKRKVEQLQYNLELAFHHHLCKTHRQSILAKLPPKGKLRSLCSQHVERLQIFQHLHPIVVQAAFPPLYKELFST
As to the kind of experiment: TR-FRET assay for ROR gamma (Lantha Screen, co-activator peptide recruitment). As to conditions: for inhibition at 1 µM: read-out: % inhibition at 1 μM; for inhibition at 10 µM: read-out: % inhibition at 10 μM. In kind it is biochemical.

The mark [1] stands for this setting: class symbols, from dose response curve, read-out: IC50 value.
The mark [2] stands for this setting: compound concentration 1 μM, TR-FRET ratio 520/495, percent of control.
Where [3] appears, read: compound concentration 10 μM, TR-FRET ratio 520/495, percent of control.

The inhibition is the relative decrease from the control value, in per cent. Take `CCCCOC(=O)c1ccc(-n2cc(C(=O)c3c(Cl)cccc3Cl)c3cccc(F)c32)c(F)c1` [Example 44, Butyl 4-[3-(2,6-dichloro-benzoyl)-7-fluoro-1H-indol-1-yl]-3-fluorobenzoate]: the inhibition at 1 µM was 3.55% and the inhibition at 10 µM was found to be 2.25%.
As usually defined, the IC50 is the concentration needed to halve the response being measured. In the case of `O=C(O)c1ccc(-n2nc(C(=O)c3c(Cl)cccc3Cl)c3ccccc32)c(F)c1` [Example 31, 4-[3-(2,6-Dichlorobenzoyl)-1H-indazol-1-yl]-3-fluorobenzoic acid], under setting [1], the IC50 is less than 50 nM. Moreover, the inhibition at 1 µM under setting [2] was found to be 96.6%. Besides, the inhibition at 10 µM under setting [3] was 91.6%.
`O=C(O)c1ccc(-n2nc(C(=O)c3c(Cl)cccc3Cl)c3ccccc32)cc1` [Example 29, 4-[3-(2,6-Dichlorobenzoyl)-1H-indazol-1-yl]benzoic acid]: under setting [1], the IC50 is less than 50 nM. Besides, the inhibition at 1 µM under setting [2] stood at 96.9%. Under setting [3], the inhibition at 10 µM was 94.3%.
For the molecule `O=C(O)c1ccc(-n2nc(Oc3c(Cl)cccc3C(F)(F)F)c3ccccc32)c(F)c1` [Example 7, 4-{3-[2-Chloro-6-(trifluoromethyl)phenoxy]-1H-indazol-1-yl}-3-fluorobenzoic acid], under setting [1], the IC50 was less than 50 nM. Besides, under setting [2], the inhibition at 1 µM was 95.3%. For the same molecule, the inhibition at 10 µM under setting [3] was 94.8%.
As to `O=C(O)c1ccc(-n2nc(C(=O)c3c(Cl)cccc3C(F)(F)F)c3cccnc32)cc1` [Example 38, 4-(3-{[2-Chloro-6-(trifluoromethyl)phenyl]carbonyl}-1H-pyrazolo[3,4-b]pyridin-1-yl)benzoic acid], the IC50 under setting [1] is less than 50 nM. Under setting [2], the inhibition at 1 µM amounted to 96.8%. The inhibition at 10 µM under setting [3] was 93.5%.
`O=C(O)c1ccc(-n2nc(Oc3c(Cl)cccc3Cl)c3cccc(F)c32)c(F)c1` [Example 11, 4-[3-(2,6-Dichlorophenoxy)-7-fluoro-1H-indazol-1-yl]-3-fluorobenzoic acid]: the IC50 under setting [1] is less than 50 nM. Besides, under setting [2], the inhibition at 1 µM was 98.1%. Further, the inhibition at 10 µM under setting [3] turned out to be 97.8%.
As for `O=C(O)c1ccc(-n2nc(C(=O)c3c(Cl)cccc3C3CC3)c3cccc(F)c32)cc1` [Example 35, 4-{3-[(2-Chloro-6-cyclopropylphenyl)carbonyl]-7-fluoro-1H-indazol-1-yl}benzoic acid], under setting [1], the IC50 was less than 50 nM. Also, the inhibition at 1 µM under setting [2] turned out to be 92.3%. Further, the inhibition at 10 µM under setting [3] stood at 89.2%.
Consider `O=C(O)c1ccc(-n2nc(Oc3ccc(Cl)cc3C(F)(F)F)c3ccccc32)c(F)c1` [Example 9, 4-{3-[4-Chloro-2-(trifluoromethyl)phenoxy]-1H-indazol-1-yl}-3-fluorobenzoic acid], for which the IC50 under setting [1] is greater than 100 nM. Also, the inhibition at 1 µM under setting [2] amounted to 86.5%. In addition, the inhibition at 10 µM under setting [3] stood at 96.9%.
`CC(C)OC(=O)c1ccc(-n2nc(Oc3c(Cl)cccc3C(F)(F)F)c3ccccc32)c(F)c1` [Example 48, Isopropyl 4-{3-[2-chloro-6-(trifluoromethyl)phenoxy]-1H-indazol-1-yl}-3-fluorobenzoate]: the inhibition at 1 µM under setting [2] was found to be 26.3%. Moreover, the inhibition at 10 µM under setting [3] turned out to be 84.6%.
Consider `O=C(O)c1ccc(-n2nc(C(=O)c3c(Cl)cccc3C(F)(F)F)c3ccccc32)cc1` [Example 34, 4-(3-{[2-Chloro-6-(trifluoromethyl)phenyl]carbonyl}-1H-indazol-1-yl)-benzoic acid], for which, under setting [1], the IC50 is less than 50 nM. In addition, the inhibition at 1 µM under setting [2] is 96.9%. Moreover, the inhibition at 10 µM under setting [3] stood at 92%.
Turning to `O=C(O)c1ccc(-n2cc(C(=O)c3c(Cl)cccc3Cl)c3ccc(F)cc32)c(F)c1` [Example 24, 4-[3-(2,6-Dichlorobenzoyl)-6-fluoro-1H-indol-1-yl]-3-fluorobenzoic acid], under setting [1], the IC50 is less than 50 nM. Besides, the inhibition at 1 µM under setting [2] came to 95.8%. In addition, the inhibition at 10 µM under setting [3] was 97.8%.
As for `O=C(O)c1ccc(-n2cc(C(=O)c3c(Cl)cccc3Cl)c3c(F)cccc32)c(F)c1` [Example 22, 4-[3-(2,6-Dichlorobenzoyl)-4-fluoro-1H-indol-1-yl]-3-fluorobenzoic acid], the IC50 was less than 50 nM, the inhibition at 1 µM was 96.8% and the inhibition at 10 µM amounted to 99.3%.
Turning to `Cc1ccccc1Oc1nn(-c2ccc(C(=O)O)cc2)c2ccccc12` [Example 1, 4-[3-(2-Methylphenoxy)-1H-indazol-1-yl]benzoic acid], the IC50 under setting [1] is less than 50 nM. Besides, the inhibition at 1 µM under setting [2] came to 90%. Also, under setting [3], the inhibition at 10 µM was determined as 96.3%.
As for `O=C(O)c1ccc(-n2nc(Oc3c(Cl)cccc3Cl)c3ccccc32)cc1` [Example 5, 4-[3-(2,6-Dichlorophenoxy)-1H-indazol-1-yl]benzoic acid], the IC50 under setting [1] is less than 50 nM. Also, the inhibition at 1 µM under setting [2] was determined as 98.4%. Under setting [3], the inhibition at 10 µM came to 99%.
Take `CCOC(=O)c1ccc(-n2cc(C(=O)c3c(Cl)cccc3Cl)c3ccccc32)c(F)c1` [Example 39, Ethyl 4-{3-[(2,6-dichlorophenyl)carbonyl]-1H-indol-1-yl}-3-fluorobenzoate]: the inhibition at 1 µM was 15.4% and the inhibition at 10 µM came to 25%.
On to `O=C(O)c1ccc(-n2nc(C(=O)c3c(Cl)cccc3C(F)(F)F)c3ccccc32)c(F)c1` [Example 33, 4-(3-{[2-Chloro-6-(trifluoromethyl)phenyl]carbonyl}-1H-indazol-1-yl)-3-fluorobenzoic acid], for which, under setting [1], the IC50 was less than 50 nM. The inhibition at 1 µM under setting [2] turned out to be 98.1%. Under setting [3], the inhibition at 10 µM came out at 94.1%.
Consider `O=C(O)c1ccc(-n2cc(C(=O)c3ccccc3F)c3ccccc32)cc1` [Example 15, 4-{3-[(2-Fluorophenyl)carbonyl]-1H-indol-1-yl}benzoic acid], for which, under setting [1], the IC50 was greater than 100 nM. Under setting [2], the inhibition at 1 µM was 76.4%. Moreover, the inhibition at 10 µM under setting [3] is 95.8%.
With `O=C(O)c1ccc(-n2nc(Oc3c(Cl)cccc3C(F)F)c3ccccc32)c(F)c1` [Example 10, 4-{3-[2-Chloro-6-(difluoromethyl)phenoxy]-1H-indazol-1-yl}-3-fluorobenzoic acid], the IC50 under setting [1] is less than 50 nM. For the same molecule, the inhibition at 1 µM under setting [2] is 100%. For the same molecule, the inhibition at 10 µM under setting [3] came out at 100%.
As for `O=C(O)c1ccc(-n2cc(C(=O)c3ccccc3Cl)c3ccccc32)cc1` [Example 17, 4-{3-[(2-Chlorophenyl)carbonyl]-1H-indol-1-yl}benzoic acid], the IC50 fell in the range of 50 to 100 nM, the inhibition at 1 µM was found to be 84.9% and the inhibition at 10 µM came to 96%.
With `O=C(O)c1ccc(-n2nc(Oc3ccccc3C(F)(F)F)c3ccccc32)cc1` [Example 2, 4-{3-[2-(Trifluoromethyl)phenoxy]-1H-indazol-1-yl}benzoic acid], the 50% inhibitory concentration (IC50) under setting [1] is less than 50 nM. Further, the inhibition at 1 µM under setting [2] amounted to 96.9%. Moreover, the inhibition at 10 µM under setting [3] was determined as 98.4%.
Consider `O=C(O)c1ccc(-n2nc(Oc3ccccc3C(F)(F)F)c3ccccc32)c(F)c1` [Example 8, 3-Fluoro-4-{3-[2-(trifluoromethyl)phenoxy]-1H-indazol-1-yl}benzoic acid], for which, under setting [1], the IC50 was less than 50 nM. Under setting [2], the inhibition at 1 µM was determined as 96.4%. In addition, the inhibition at 10 µM under setting [3] turned out to be 98.2%.
Regarding `O=C(O)c1ccc(-n2cc(C(=O)c3c(Cl)cccc3C(F)(F)F)c3ccccc32)c(F)c1` [Example 21, 4-{3-[2-Chloro-6-(trifluoromethyl)benzoyl]-1H-indol-1-yl}-3-fluorobenzoic acid], the IC50 was less than 50 nM, the inhibition at 1 µM stood at 92.2% and the inhibition at 10 µM stood at 92.4%.
With `O=C(O)c1ccc(-n2nc(C(=O)c3c(Cl)cccc3Cl)c3cccc(F)c32)cc1` [Example 32, 4-{3-[(2,6-Dichlorophenyl)carbonyl]-7-fluoro-1H-indazol-1-yl}benzoic acid], the IC50 under setting [1] was less than 50 nM. Under setting [2], the inhibition at 1 µM came to 94.6%. Besides, under setting [3], the inhibition at 10 µM came to 90.4%.
